Target: T1, human adenosine A2a receptor (Homo sapiens, UniProt P29274)
T1 construct: β1 and γ2 baculoviruses from PerkinElmer Biosignal; host or cells: Sf9 insect cells infected with recombinant baculoviruses; membranes
Assay: Agonist-induced [35S]-GTPγS binding assay on A2a receptor, Sf9 membranes
Format: biochemical
Conditions: Sf9 cells expressing adenosine A2a receptor, XLGolf, and β1γ2 dimer
Description: After infection for 48 hours, cells were harvested for membrane preparation. Cells were harvested by centrifugation at 500×g at 4° C. The cell pellets were washed twice with Dulbecco's phosphate-buffered saline (DPBS) at pH 7.4 and suspended in ice-cold 10 mM Tris-HCl with 5 mM EDTA (TE)(pH 7.4) containing a protease inhibitor cocktail (Roche Applied Science, Indianapolis, Ind.) and sonicated. Following centrifugation at 1000×g, membranes were collected from the supernatant by centrifugation at 20,000×g for 30 min at 4° C. The membrane fraction was stored at −80° C. in TE containing 5% glycerol.
Membranes from Sf9 cells expressing the ADORA2A, XLGolf, β1, and γ2 subunits were resuspended in the reaction buffer (20 mM HEPES, pH 7.4, 100 mM NaCl, 10 mM MgCl2, 1 mM EDTA, 1 mM DTT) including protease inhibitor. Agonist-induced [^35S]-GTPγS binding assay was performed for 90 min at room temperature in 96 well-microplates with a volume of 200 μl per well, and containing 5 μg of membranes, agonist at a concentration range of 10^−12 to 10^−4 M, 10 μM GDP, and 400 pM [^35S]-GTPγS. Non-specific binding was determined in the presence of 10 μM unlabeled GTPαS. Incubations were terminated by rapid filtration of the samples throught glass fiber filters (Whatman GF/C). […] Radioactivity was measured using a Packard Bioscience Top Count NXT Microplate Scintillation microplate reader. […]

T1 sequence (P29274 whole entry): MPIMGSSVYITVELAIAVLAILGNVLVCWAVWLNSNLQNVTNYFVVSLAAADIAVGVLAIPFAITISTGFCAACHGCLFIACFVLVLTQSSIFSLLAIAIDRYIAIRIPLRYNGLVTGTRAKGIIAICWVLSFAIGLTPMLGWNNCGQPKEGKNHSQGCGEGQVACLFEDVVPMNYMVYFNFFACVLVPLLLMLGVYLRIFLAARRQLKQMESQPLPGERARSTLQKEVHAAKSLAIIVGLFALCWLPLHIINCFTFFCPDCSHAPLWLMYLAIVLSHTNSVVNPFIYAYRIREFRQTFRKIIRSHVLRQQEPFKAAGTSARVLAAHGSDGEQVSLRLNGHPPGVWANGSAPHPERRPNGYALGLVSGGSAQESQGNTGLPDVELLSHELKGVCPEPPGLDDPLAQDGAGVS

potencies of ADA-resistant adenosine receptor ligands: comparable
SMILES: Nc1nc(Nc2ccccc2)nc2c1ncn2[C@@H]1O[C@H](CO)[C@@H](O)[C@H]1O [CV1808]
